Patent publication US20230416239A1, “COMPOUNDS AND METHODS FOR TREATING A CYTOKINE-MEDIATED DISEASE” (CONSERVATOIRE NATIONAL DES ARTS ET MÉTIERS, priority 2020, published 2023)

Experiments:
[1] = target: TNFa/TNFRI interaction (Homo sapiens, UniProt P01375); assay: TNFa/TNFRI interaction displacement test; assay type: binding; details: for Displacement (%): compounds at 50 μM, human TNFRI 100 ng/ml; for Displacement EC50 TNFa in presence of compound: Difference: Compound EC50 minus SPD304 EC50;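 for Displacement EC50 TNFa in presence of compound: Difference: SPD304 reference at 20 µM final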
Chain of TNFa/TNFRI interaction (P01375 77-233 limits assumed): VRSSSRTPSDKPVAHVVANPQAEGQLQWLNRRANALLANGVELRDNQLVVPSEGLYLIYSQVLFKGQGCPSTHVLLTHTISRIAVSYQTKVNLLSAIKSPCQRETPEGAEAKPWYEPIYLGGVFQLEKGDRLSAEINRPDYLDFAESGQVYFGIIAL
Method in brief: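 Plates coated overnight at 4° C with human TNFRI (100 ng/ml) and blocked with 2% BSA, then test mixtures were incubated overnight at 4° C. Bound cytokine detected with biotinylated anti-cytokine antibody (2 h, 37° C) and avidin-HRP, read as OD at 450 nm.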

[2] = target: IL-13 (Homo sapiens, UniProt P35225); assay: Immunoassay binding test, IL-13; details: for IC50: IL-13 400 ng/ml, receptor 100 ng/ml, read-out: BINDING IL13 IC50
Chain of IL-13 (P35225 25-146, species assumed): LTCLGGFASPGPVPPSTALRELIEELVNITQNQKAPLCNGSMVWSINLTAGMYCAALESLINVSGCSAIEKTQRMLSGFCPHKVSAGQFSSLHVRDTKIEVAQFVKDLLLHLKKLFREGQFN
Method in brief: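 Receptor-coated plates; compounds (100 to 0.78 μM final) preincubated 2 h at 37° C with fixed cytokine, then bound to receptor overnight at 4° C. Bound cytokine detected with biotinylated anti-cytokine antibody and avidin-HRP, OD 450 nm.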

[3] = target: TNFα (Homo sapiens, UniProt P01375); assay: Immunoassay binding test, TNFa; details: compounds 100 to 0.78 μM; TNFα 10 ng/ml, receptor 100 ng/ml; read-out: BINDING TNF IC50
Chain of TNFα (P01375 77-233 limits assumed, species assumed): as the sequence (P01375 77-233 limits assumed) above
Method in brief: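 ELISA-type binding test: receptor-coated plates blocked with 2% BSA, then cytokine (six-point dilution series) preincubated 2 h at 37 °C and bound overnight at 4 °C. Detection used biotinylated anti-cytokine antibody and avidin-HRP, read as OD at 450 nm. For IL-6, IL-6Ra was present at 200 ng/ml final.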

[4] = target: IL-6 (Homo sapiens, UniProt P05231); assay: Immunoassay binding test, IL-6 (gp130 receptor, IL-6Ra present); details: IL-6Ra 200 ng/ml
Chain of IL-6 (P05231 30-212, species assumed): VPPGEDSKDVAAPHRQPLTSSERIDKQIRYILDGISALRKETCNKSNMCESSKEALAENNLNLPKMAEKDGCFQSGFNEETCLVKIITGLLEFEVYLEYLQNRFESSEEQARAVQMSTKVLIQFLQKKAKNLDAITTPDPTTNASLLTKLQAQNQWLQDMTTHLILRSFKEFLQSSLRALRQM
Method in brief: (§1)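 Detection used OD at 450 nm after biotinylated anti-cytokine antibody and avidin-HRP were applied to receptor-coated wells. Those wells had received, overnight at 4 °C, cytokine preincubated 2 h at 37 °C with compound at final 100 to 0.78 μM. IL-6 mixtures further contained IL-6Ra at 200 ng/ml final.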

[5] = target: T1, IL-4 (Homo sapiens, UniProt P05112); assay: Immunoassay binding test, IL-4; details: for IC50: IL-4 400 ng/ml, receptor 100 ng/ml, read-out: BINDING IL4 IC50
T1 sequence (P05112 25-153): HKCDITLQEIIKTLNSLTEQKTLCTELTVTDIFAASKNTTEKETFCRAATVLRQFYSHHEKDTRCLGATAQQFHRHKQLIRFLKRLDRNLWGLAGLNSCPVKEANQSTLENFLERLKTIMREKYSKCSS
Method in brief: as §1

Row | Structure (SMILES) | Displacement (%) [1] [%] | BINDING IL13 % Neutra at 100 μM [2] [%] | IC50 [2] [µM] | IC50 [3] [µM] | BINDING IL6 % Neutra at 100 μM [4] [%] | BINDING IL4 % Neutra at 100 μM [5] [%] | IC50 [5] [µM] | Displacement EC50 TNFa in presence of compound: Difference [1] [ng/mL]
1 | FC(F)(F)c1cccc(-n2cc(CN(CCCCCNC3CCCCC3)Cc3cccnc3)c3ccccc32)c1 [Compound 38] | 139 | 98.9 | 1.5 | > 50 | 24.9 | 95.7 | 3.9 | –
2 | CN(CCCCCN(Cc1ccncc1)Cc1cn(-c2cccc(C(F)(F)F)c2)c2ccccc12)C1CCCCC1 [Compound 39] | 159 | 94.8 | > 50 | 14.7 | 23.7 | 96 | 4.7 | 4.2
3 | CN(CCCCCN(Cc1cccnc1)Cc1cn(-c2cccc(C(F)(F)F)c2)c2ccccc12)C1CCCCC1 [Compound 40] | 157 | 94.2 | 11.2 | 19.9 | 16.4 | 96.4 | 2.7 | 4.2
4 | O=S(=O)(c1ccccc1)n1cc(CN(Cc2cccc(F)n2)CC2CCCN(C3CCCCC3)C2)c2ccccc21 (stereo not shown) [Compound 41] | 152 | 87.6 | 9.2 | 7 | 0 | 94.7 | 4.8 | 4.7
5 | Fc1ncccc1CN(Cc1cn(-c2cccc(C(F)(F)F)c2)c2ccccc12)CC1CCCN(C2CCCCC2)C1 (stereo not shown) [Compound 42] | 177 | 86.3 | 21.3 | 15.6 | 0 | 94.4 | 6.4 | 8.3
6 | O=S(=O)(c1ccccc1)n1cc(CN(CCCCNC2CCCCC2)Cc2cccnc2F)c2ccccc21 [Compound 43, N1-cyclohexyl-N4-((2-fluoropyridin-3-yl)methyl)-N4-((1-(phenylsulfonyl)-1H-indol-3-yl)methyl)butane-1,4-diamine] | 87 | 85.1 | > 50 | 8.8 | 0 | 93.2 | 6.7 | –
7 | O=S(=O)(c1ccccc1)n1cc(CN(CCCCNC2CCCCC2)Cc2cccc(F)n2)c2ccccc21 [Compound 45, N1-cyclohexyl-N4-((6-fluoropyridin-2-yl)methyl)-N4-((1-(phenylsulfonyl)-1H-indol-3-yl)methyl)butane-1,4-diamine] | 114 | 86.5 | > 50 | 10.4 | 0 | 90.5 | 7.6 | –
8 | O=S(=O)(c1ccccc1)n1cc(CN(CCCCCNC2CCCCC2)Cc2ccnc(F)c2)c2ccccc21 [Compound 47, N1-cyclohexyl-N5-((2-fluoropyridin-4-yl)methyl)-N5-((1-(phenylsulfonyl)-1H-indol-3-yl)methyl)pentane-1,5-diamine] | 99 | 93.1 | 17.8 | 8.9 | 0 | 93.3 | 5.5 | –
9 | O=S(=O)(c1ccccc1)n1cc(CN(CCCCCNC2CCCCC2)Cc2cccc(F)n2)c2ccccc21 [Compound 48, N1-cyclohexyl-N5-((6-fluoropyridin-2-yl)methyl)-N5-((1-(phenylsulfonyl)-1H-indol-3-yl)methyl)pentane-1,5-diamine] | 91 | 89.9 | 17.8 | 13.7 | 1 | 91.2 | 7 | –
10 | CN(CCCCN(Cc1cccnc1F)Cc1cn(S(=O)(=O)c2ccccc2)c2ccccc12)C1CCCCC1 [Compound 49, N1-cyclohexyl-N4-((2-fluoropyridin-3-yl)methyl)-N1-methyl-N4-((1-(phenylsulfonyl)-1H-indol-3-yl)methyl)butane-1,4-diamine] | 127 | 88.8 | 23.9 | 8.2 | 0 | 89.5 | 5.6 | –
11 | CN(CCCCN(Cc1ccnc(F)c1)Cc1cn(S(=O)(=O)c2ccccc2)c2ccccc12)C1CCCCC1 [Compound 50, N1-cyclohexyl-N4-((2-fluoropyridin-4-yl)methyl)-N1-methyl-N4-((1-(phenylsulfonyl)-1H-indol-3-yl)methyl)butane-1,4-diamine] | 138 | 90.3 | 26.2 | 7.2 | 0 | 90.6 | 6.3 | –
12 | CN(CCCCN(Cc1cccc(F)n1)Cc1cn(S(=O)(=O)c2ccccc2)c2ccccc12)C1CCCCC1 [Compound 51, N1-cyclohexyl-N4-((6-fluoropyridin-2-yl)methyl)-N1-methyl-N4-((1-(phenylsulfonyl)-1H-indol-3-yl)methyl)butane-1,4-diamine] | 153 | 89.4 | 25.9 | 7.9 | 0 | 87.2 | 6.7 | –
13 | CN(CCCCCN(Cc1cccnc1F)Cc1cn(S(=O)(=O)c2ccccc2)c2ccccc12)C1CCCCC1 [Compound 52, N1-cyclohexyl-N5-((2-fluoropyridin-3-yl)methyl)-N1-methyl-N5-((1-(phenylsulfonyl)-1H-indol-3-yl)methyl)pentane-1,5-diamine] | 145 | 88.1 | 15.8 | 9.1 | 0 | 91.7 | 5 | –
14 | CN(CCCCCN(Cc1ccnc(F)c1)Cc1cn(S(=O)(=O)c2ccccc2)c2ccccc12)C1CCCCC1 [Compound 53, N1-cyclohexyl-N5-((2-fluoropyridin-4-yl)methyl)-N1-methyl-N5-((1-(phenylsulfonyl)-1H-indol-3-yl)methyl)pentane-1,5-diamine] | 115 | 91.6 | 15.2 | 8.4 | 0 | 92.7 | 5.2 | –
15 | CN(CCCCCN(Cc1cccc(F)n1)Cc1cn(S(=O)(=O)c2ccccc2)c2ccccc12)C1CCCCC1 [Compound 54, N1-cyclohexyl-N5-((6-fluoropyridin-2-yl)methyl)-N1-methyl-N5-((1-(phenylsulfonyl)-1H-indol-3-yl)methyl)pentane-1,5-diamine] | 85 | 92.5 | 47.4 | 11.7 | 0 | 88.4 | 3 | –
